Entries after “also recorded” stand apart in the source; their conditions may differ.

In series [1] the test system is human malignant LN18 glioma cells. The series is described as follows: Uptake/staining of cells by FITC-labelled conjugates (CLSM, FACS, semi-thin sections). As to conditions: for staining rate / number of stained cells: free compound co-incubated with conjugate 3 (260 μM); for cells strongly stained by FITC, FACS histogram: free unbound compound incubated in combination with conjugate 3 (260 μM). The format is cell-based. As for the experimental part:
(§1) The human malignant U373 and LN18 glioma cells were cultivated in 75 cm^2 culture flasks (Corning Costar) (70% confluency) under the conditions as described under 1.4, detached from the flask bottom with Accutase™ (PAA Laboratories) and in the following distributed on Eppendorf tubes (Eppendorf, Hamburg, Germany) (6×10^6 per tube). The cells in the first tube serve as a control (only PBS buffer only). The cells in the other ten tubes were each incubated with benzoic acid (BA), monoiodobenzoic acid (MIBA) or diiodobenzoic acid (DIBA) alone (260 μM), conjugate 3 alone (260 μM), conjugate 3 plus either BA, MIBA or DIBA (260 μM), respectively, and the conjugates 9, 10, and 11 alone. (260 μM).
After an incubation of 20 minutes at 37° C./5% CO2 the cells were washed three times with PBS buffer and centrifuged at 800 rpm (rounds per minute) for 5 minutes. The fluorescence was measured in Becton Dickinson FACSCalibur as described under 1.4. The computer tomography was performed as described under 1.5.1. The examinations were repeated two times. […]
(§2) The FACS analysis was performed as described under 1.4. The assay was repeated two times.
(§3) For the CT and FACS examinations human LN18 and U373 glioma cells were cultivated in 75 cm^2 culture flasks (70% confluency) (conditions as described under section 1). Accutase™ (PAA Laboratories) was added to detach the cell from the culture bottom. The cells were collected and then distributed on Eppendorf-tubes (6×10^6 cells per tube). […] The next three tubes were used for the coincubation of the cells either with trichlorobenzoic acid (TCBA), trifluorobenzoic acid (TFBA) or tribromophenyl Isocyanat (TBPI) and the NLS-FITC-conjugate 3 (260 μM). As control cells were used which were only either incubated with CIBA, FIBA, TBPI (in each case 260 μM in PBS) or with PBS-buffer (native control) alone. […] The computer tomography and FACS analysis of the cell centrifuges were performed as described in 1.5.1 or 1.4, respectively for three times.
All measurements were performed on living cells.
All measurements were performed on living cells in triplicates.
A part of the cells which were stained for the FACS analysis, was fixed by paraformaldehyl with 2% Agar, dehydrogenized in ethanol, embedded in Lowicryl K4M (Polysciences, Eppelheim, Germany) and according to the information of the manufacturer UV-polymerised at room temperature. Semi-thin sections (about 0.4 μm) were cut and evaluated by means of fluorescence microscopy.

For series [2] the test system is unchanged. The series is described as follows: Cell viability / cell death (annexin-V-Alexa 568 binding, propidium iodide, FACS scatter morphology). The format is cell-based. As to conditions: for influence on the cell viability: free compound alone, each 250 μM (FIG. 15). As for the experimental part: All measurements were performed on living, non-fixed cells. […] All measurements were performed on living cells. […] All measurements were performed on living cells in triplicates. […] All measurements were performed on living cells.

Series [3] deals with human malignant U373 glioma cells. The series is described as follows: Uptake/staining of cells by FITC-labelled conjugates (fluorescence microscopy, CLSM, FACS, semi-thin sections). As to conditions: free unbound compound incubated in combination with conjugate 3 (260 μM). Format: cell-based. As for the experimental part:
Fluorescence was measured in a Becton Dickinson FACSCalibur. […] The investigations were performed in triplicate.
For CT and FACS human U373 glioma cells were grown under the same conditions in 75 cm^2 culture flasks (Corning Costar, Bodenheim, Germany) (70% confluency). Accutase™ (PAA laboratories, Pasching, Austria) was added to achieve detachment of the cells which were harvested and subsequently aliquoted into Eppendorf tubes (6×10^6 cells per tube). As in the investigations performed by fluorescence microscopy, the cells in the first tube served as a control (PBS only). The cells in the other tubes were incubated with 260 μM Ultravist, 260 μM TIBA in PBS and 26 μM, 260 μM and 2.6 mM conjugates 1-4 in PBS. After a 20 minute incubation period at 37° C. in an atmosphere of 5% CO2, the cells were washed three times in PBS and centrifuged at 800 rpm for 5 minutes.
The FACS analysis was performed as described under 1.4.
as §1
After an incubation of 20 minutes at 37° C./5% CO2 the cells were washed three times with PBS buffer and centrifuged at 800 rpm (rounds per minute) for 5 minutes. The fluorescence was measured in Becton Dickinson FACSCalibur as described under 1.4. The computer tomography was performed as described under 1.5.1. The examinations were repeated two times.
For the CT and FACS examinations human LN-18 and U373 glioma cells were cultivated in 75 cm^2 culture flasks (Corning Costar) (70% confluency) (conditions as described under 1.4). Accutase™ (PAA Laboratories) was added to detach the cells from the bottom of the culture flasks. The cells were collected and then distributed on Eppendorf tubes (6×10^6 cells per tube). The cells in the first two tubes serve as a control (in each case only PBS, LN18 and U373 glioma cells, native). The cells in the other tubes (in each case LN18 and U373 glioma cells) were incubated with a 260 μM or 2.6 mM solution of the conjugate 12 for 20 minutes at 37° C. and 5% CO2 and in the following washed for three times with PBS buffer and centrifuged for 5 minutes with 800 rpm (rounds per minute). For a small amount of the cells it was tested by the MMT test (see 1.4) how many of the cells were still viable. The computer tomography of the cell centrifuges was performed with the Somatom Sensation 16 (Siemens).
as §2
as §3, with “times. […]” for “times.”

The test system is the same in series [4]. Description: Cell viability / cell death (MTT test, propidium iodide, annexin-V-Alexa 568 binding, FACS scatter morphology). As to conditions: 260 μM in PBS, 20 min, substance alone. How it is done: Human malignant U373-glioma cells were grown to 70% confluency in RPMI-1640 Ready Mix Medium containing L-Glutamine and 10% FBS-Gold (PAA laboratories, Pasching, Austria) at 37° C., 5% CO2 (vol/vol), in 4-well-plates (NUNC, Wiesbaden, Germany) with about 300,000 cells pro well. […] After this, the cells were washed three times with buffer and then incubated with Ready Mix Medium again. Cell viability was then assessed by the addition of methyl-thiazoyl-tetrazolium (MTT) salt (Sigma-Aldrich, Germany) at a concentration of 15 mg/ml. After 20 minutes, the production of formazan was investigated. When blue formazan granules were detected, propidium iodine (PI) was added to the medium (1 μM PI; Molecular Probes, Eugene, Oreg., USA) to detect cells with damaged cell membranes. […] Pictures were taken with a 3-CCD color video camera (MC3254P, Sony, Japan) and the Axiovision Software (Carl Zeiss, Jena, Germany). The intensity of cell fluorescence was recorded at the exposure time necessary for the production of the fluorescence images.
After imaging, Accutase™ (PAA laboratories, Pasching, Austria) was added to the wells to achieve detachment of the cells for further FACS analysis. Fluorescence was measured in a Becton Dickinson FACSCalibur. A total of 20,000 events per sample were analyzed. The investigations were performed in triplicate.
A sample of cells from each Eppendorf tube was subjected to the MTT test (described under 1.4) to determine microscopically whether the cells were viable. In vitro CT of the cell pellets was performed with a Somatom Sensation 16 (Siemens) which is used for routine clinical investigations.
Cells were incubated for 20 minutes with each of the conjugates dissolved in 0.1% DMSO/PBS at 260 μm. The cells were also incubated with TIBA and both of the non-TIBA-containing conjugates (3 and 4) separately in 0.1% DMSO/OBS at 260 μm. Both TIBA and the conjugates were dissolved in 0.1% DMSO/PBS at 260 μm for incubation due to the insolubility of TIBA (but not the conjugates) in pure PBS. As controls, the cells were incubated with PBS alone, 0.1% DMSO/PBS alone, and TIBA alone (260 μm in 0.1% DMSO/PBS).
The detection of phosphatidyl serine in the outer membrane leaflet of apoptotic cells was performed with the Annexin-V-Alexa™-568-reagent according to manufacturer's protocol (Roche Molecular Biochemicals, Indianapolis, USA). The confocal laser-scanning microscopy was performed on an inverted LSM 510 laser-scanning microscope (Carl Zeiss, Jena, Germany) (objectives: LD Achroplan 40×0.6, Plan Neofluar 20×0.50, 40×0.75). For fluorescence excitation, the 488 nm line of an argon-ion laser and the […] line of a helium-neon laser with appropriate beam splitters and barrier filters were used for FITC and Alexa respectively. Superimposed images of FITC- and Alexa-stained samples were created by overlaying coincident views. All measurements were performed on living, non-fixed cells.
Human malignant LN18 and U373 glioma cells were cultivated in four-well plates (NUNC, Wiesbaden, Germany) (about 300,000 cells per well) as described under 1.5. […] The cells were also coincubated either with CIBA, FIBA or TBPI as well as the NLS-FITC conjugate 3 (each 260 μM). As a control cells were used which were only incubated either with CIBA, FIBA or TBPI (260 μM in PBS) alone. After the incubation the cells were washed three times with PBS and in the following again incubated in Ready Mix Medium. The FITC-labelled conjugates and the Alexa-Annexin for the detection of phosphatidylserine as a signal of the cell death were localized with the confocal laser microscopy (CLSM) as in 1.6.1. All measurements were performed on living cells.

[5] abbreviates: free compound co-incubated with conjugate 3 (260 μM).
[6] abbreviates: 260 μM, 20 min, substance alone.

With “trichlorobenzoic acid [TCBA, reference compound]”, the “staining rate / number of stained cells” value in series [1] is “did not result in any considerable change”; in series [1] (listed as trichlorobenzoic acid), “only few cells stained in their nuclei”. Further, the “cells strongly stained by FITC, FACS histogram” value (“cells strongly stained by FITC” below) in series [1] and in series [3] was “no shift of the histogram peak to the right” throughout. In series [2], the “influence on the cell viability” value is listed as “did not result in any influence on the cell viability”. For the same molecule, the “cell death / vitality (annexin-V-Alexa 568, propidium iodide)” value (from here on “cell death / vitality”) in series [2] (setting [5]) was “did not result in any considerable change”; in series [2] (free compound co-incubated with conjugate 3 (260 μM), listed as trichlorobenzoic acid), “remain vital”.
Regarding tribromophenylisocyanate [TBPI], the “staining rate / number of stained cells” value in series [1] is listed as “only in the staining of the nucleus in few cells”; in series [1] (listed as TPBI), “did not result in any considerable change”. Also, the “cell death / vitality” value in series [2] (setting [6]) is “does not result in a cell death”; in series [2] (setting [5]), “without an impairment of the vitality”; in series [2] (free compound co-incubated with conjugate 3 (260 μM), listed as TPBI), “did not result in any considerable change”. Further, in series [2], the “influence on the cell viability” value is “did not result in any influence on the cell viability”.
With `O=C(O)c1cc(I)ccc1I` [DIBA, 2,5-diiodobenzoic acid, reference compound], the “staining rate / number of stained cells” value in series [1] is recorded as “did not result in a higher staining rate; also recorded: did not result to a considerable change”. For the same molecule, the “cell death / vitality” value in series [2] (setting [6]) was “did not result in cytotoxic effects”; in series [2] (setting [5]), “did not result in a binding of annexin-V-Alexa™ 568; also recorded: did not result to a considerable change”. Further, the “cytotoxic effects / signs of cell death” value in series [4] is “did not result in cytotoxic effects”.
On to `O=C(O)c1ccccc1` [BA, benzoic acid, reference compound], for which, in series [1], the “staining rate / number of stained cells” value is “did not result to a considerable change”. Besides, the entries for the “cell death / vitality” value in series [2] (setting [6]) and in series [2] (setting [5]) were “did not result in cytotoxic effects” and “did not result to a considerable change”, respectively. Further, the “cytotoxic effects / signs of cell death” value in series [4] is given as “did not result in cytotoxic effects”.
Turning to `O=C(O)c1ccc(I)cc1` [MIBA, 4-monoiodobenzoic acid, reference compound], the “staining rate / number of stained cells” value in series [1] was “did not result in a higher staining rate; also recorded: did not result to a considerable change”. Also, the figures for the “cell death / vitality” value in series [2] (setting [6]) and in series [2] (setting [5]) were “did not result in cytotoxic effects” and “did not result in a binding of annexin-V-Alexa™ 568; also recorded: did not result to a considerable change”, respectively. Moreover, the “cytotoxic effects / signs of cell death” value in series [4] is recorded as “did not result in cytotoxic effects”.
“trifluorobenzoic acid [TFBA, reference compound]”: in series [1], the “staining rate / number of stained cells” value is listed as “few stained cells; also recorded: did not result in any considerable change” and the “cells strongly stained by FITC” value is “no shift of the histogram peak to the right”. Further, the “influence on the cell viability” value in series [2] was “did not result in any influence on the cell viability”. Moreover, the “cell death / vitality” value in series [2] (setting [5]) is given as “remain vital; also recorded: did not result in any considerable change”. In addition, the “cells strongly stained by FITC” value in series [3] was “no shift of the histogram peak to the right”.
